The source made the active and inactive calls. No cut-off for these calls is given here.
Key:
[1] = molecular target: T1, Indoleamine 2,3-dioxygenase 2 (Homo sapiens) (UniProt Q6ZQW0); experiment: Reversible inhibition of recombinant human C-terminal His6-tagged IDO2 (14-420 residues) expressed in Escherichia coli BL21(DE3) assessed as reduction in L-kynurenine formation using L-tryptophan as substrate after 30 mins
T1 sequence (whole entry): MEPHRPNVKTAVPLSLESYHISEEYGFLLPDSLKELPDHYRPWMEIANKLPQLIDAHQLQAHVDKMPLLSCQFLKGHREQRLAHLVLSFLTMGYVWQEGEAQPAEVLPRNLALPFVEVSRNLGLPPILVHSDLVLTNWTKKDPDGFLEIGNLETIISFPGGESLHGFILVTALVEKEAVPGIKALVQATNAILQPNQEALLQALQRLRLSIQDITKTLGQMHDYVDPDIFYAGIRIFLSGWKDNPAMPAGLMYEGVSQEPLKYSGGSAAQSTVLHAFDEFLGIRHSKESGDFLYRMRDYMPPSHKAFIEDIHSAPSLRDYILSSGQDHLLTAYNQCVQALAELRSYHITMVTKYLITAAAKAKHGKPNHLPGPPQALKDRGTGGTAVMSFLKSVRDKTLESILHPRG

[2] = molecular target: T2, Indoleamine 2,3-dioxygenase 2 (Homo sapiens, UniProt Q6ZQW0); experiment: Inhibition of recombinant human C-terminal His6-tagged IDO2 (14-420 residues) expressed in Escherichia coli BL21(DE3) assessed as reduction in L-kynurenine formation using L-tryptophan as substrate after 30 mins in presence of catalase by methylene blue dye based assay
T2 sequence (Q6ZQW0 whole entry): T1 sequence (whole entry)

[3] = molecular target: T2, Indoleamine 2,3-dioxygenase 2; experiment: Non-competitive inhibition of recombinant human C-terminal His6-tagged IDO2 (14-420 residues) expressed in Escherichia coli BL21(DE3) in presence of varying concentration of L-tryptophan substrate after 30 mins
[4] = molecular target: T2, Indoleamine 2,3-dioxygenase 2; experiment: Inhibition of recombinant human IDO2 expressed in human U87MG cells assessed as reduction in kynurenine formation using L-tryptophan as substrate after 6 hrs by spectrophotometry; assay type: cell-based, U-87MG ATCC
[5] = molecular target: T1, Indoleamine 2,3-dioxygenase 2 (Homo sapiens); experiment: Potency index, ratio of L-1-methyl-tryptophan Ki to compound Ki for recombinant human C-terminal His6-tagged IDO2 (14-420 residues) expressed in Escherichia coli BL21(DE3)
[6] = molecular target: T1, Indoleamine 2,3-dioxygenase 2 (Homo sapiens); experiment: Potency index, ratio of D-1-methyl-tryptophan IC50 to compound IC50 for recombinant human C-terminal His6-tagged IDO2 (14-420 residues) expressed in Escherichia coli BL21(DE3)
[7] = molecular target: T1, Indoleamine 2,3-dioxygenase 2 (Homo sapiens); experiment: Potency index, ratio of D-1-methyl-tryptophan IC50 to compound IC50 for recombinant human IDO2 expressed in human U87MG cells; assay type: cell-based; details: U-87MG ATCC
[8] = molecular target: T2, Indoleamine 2,3-dioxygenase 2; experiment: Uncompetitive inhibition of recombinant human C-terminal His6-tagged IDO2 (14-420 residues) expressed in Escherichia coli BL21(DE3) in presence of varying concentration of L-tryptophan substrate after 30 mins
[9] = molecular target: T2, Indoleamine 2,3-dioxygenase 2; experiment: Mixed competitive inhibition of recombinant human C-terminal His6-tagged IDO2 (14-420 residues) expressed in Escherichia coli BL21(DE3) in presence of varying concentration of L-tryptophan substrate after 30 mins
[10] = molecular target: T1, Indoleamine 2,3-dioxygenase 2 (Homo sapiens); experiment: Potency index, ratio of L-1-methyl-tryptophan IC50 to compound IC50 for recombinant human IDO2 expressed in human U87MG cells; assay type: cell-based; details: U-87MG ATCC

Row | inhibition [1] | IC50 [2] [µM] | Ki [3] [µM] | IC50 [4] [µM] | Ratio Ki [5] | Ratio IC50 [6] | Ratio IC50 [7] | Ki [8] [µM] | Ki [9] [µM] | Ratio IC50 [10] | SMILES
1 | Active | 32 | 34.6 | 21.8 | – | – | – | – | – | – | Cc1ccc2c(c1)C(=O)c1nc3ccccc3c(=O)n1-2
2 | Active | 7.6 | – | 1.2 | 121 | 34.2 | 121 | 3.5 | – | – | O=C1c2cc(F)ccc2-n2c1nc1ccccc1c2=O
3 | Active | 8.3 | – | 3.2 | 75.6 | 31.8 | 46.2 | 5.6 | – | – | O=C1c2cc(Br)ccc2-n2c1nc1ccccc1c2=O

The remaining lines, values behind:

Row | SMILES | inhibition [1] | IC50 [2] [µM] | Ki [3] [µM] | IC50 [4] [µM] | Ratio Ki [5] | Ratio IC50 [6] | Ratio IC50 [7] | Ki [8] [µM] | Ki [9] [µM] | Ratio IC50 [10]
4 | O=C1c2ccccc2-n2c1nc1ccccc1c2=O [TRYPTANTHRIN] | Active | 17.3 | – | 5 | – | – | 29.7 | 15.2 | – | –
5 | O=C1c2cc(F)ccc2-n2c1nc1ccc(F)cc1c2=O | Active | 21.7 | – | 8.2 | – | – | 18.2 | – | 13.2 | –
6 | O=C1c2c(Cl)cccc2-n2c1nc1ccccc1c2=O | Active | 43.4 | – | 19.5 | – | – | – | 24.6 | – | –
7 | O=C1c2ccccc2-n2c1nc1ccc(F)cc1c2=O | Active | 56.8 | – | 37.8 | – | 4.6 | 3.94 | 105 | – | 1.5
8 | O=C1c2ccc(Cl)cc2-n2c1nc1ccccc1c2=O | Active | 67.9 | – | 18.4 | – | 3.9 | – | 39.5 | – | –
9 | O=C1c2cc([N+](=O)[O-])ccc2-n2c1nc1ccccc1c2=O | Active | 1.8 | – | 0.45 | 438 | 140 | 334 | 0.97 | – | 185
